Test results from PubChem BioAssay (NCI).
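Protocol summary: plate cells (96-well), add compound at 5 concentrations, incubate 48 h, interpolate endpoints linearly. TGI is the concentration that stops growth completely.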

Tests used:
Assay in all cases: DTP human tumour cell line panel, 48 h
[1] = tested on: COLO 205 colon
[2] = tested on: RPMI-8226 leukemia
[3] = tested on: HS 578T breast
[4] = tested on: MDA-MB-435
[5] = tested on: NCI-H23 lung
[6] = tested on: HOP-62 NSCLC
[7] = tested on: CCRF-CEM leukemia
[8] = tested on: KM12 colon
[9] = tested on: SK-MEL-5 melanoma
[10] = tested on: MDA-MB-231 breast
[11] = tested on: SNB-19 CNS
[12] = tested on: EKVX NSCLC
[13] = tested on: UACC-62 melanoma
[14] = tested on: CAKI-1 renal
[15] = tested on: SF-268 CNS
[16] = tested on: OVCAR-8 ovarian
[17] = tested on: A549 NSCLC
[18] = tested on: T-47D breast
[19] = tested on: LOX IMVI melanoma
[20] = tested on: SNB-75 CNS
[21] = tested on: HCC-2998 colon
[22] = tested on: SF-539 CNS
[23] = tested on: TK-10 renal
[24] = tested on: A498 renal
[25] = tested on: M14 melanoma
[26] = tested on: UO-31 renal
[27] = tested on: MDA-N
[28] = tested on: MALME-3M melanoma
[29] = tested on: ACHN renal
[30] = tested on: K-562 leukemia
[31] = tested on: BT-549 breast
[32] = tested on: HCT-116 colon
[33] = tested on: MOLT-4 leukemia
[34] = tested on: SW-620 colon
[35] = tested on: SR leukemia
[36] = tested on: DU-145 prostate
[37] = tested on: SK-OV-3 ovarian
[38] = tested on: SN12C renal
[39] = tested on: SF-295 CNS
[40] = tested on: HCT-15 colon
[41] = tested on: PC-3 prostate
[42] = tested on: NCI-H460 lung
[43] = tested on: SK-MEL-28 melanoma
[44] = tested on: HL-60(TB) leukemia
[45] = tested on: NCI-H522 lung
[46] = tested on: IGROV1 ovarian
[47] = tested on: MCF7 breast
[48] = tested on: 786-0 renal
[49] = tested on: NCI-H226 lung
[50] = tested on: HT29 colon
[51] = tested on: U251 CNS
[52] = tested on: OVCAR-5 ovarian
[53] = tested on: OVCAR-3 ovarian
[54] = tested on: HOP-92 NSCLC
[55] = tested on: NCI/ADR-RES ovarian
[56] = tested on: OVCAR-4 ovarian
[57] = tested on: SK-MEL-2 melanoma
[58] = tested on: RXF 393 renal
[59] = tested on: UACC-257 melanoma

Work on `O=P(c1ccccc1)(c1ccccc1)c1ccc2c(c1)OCCOCCOCCOCCO2` yielded a TGI [1] greater than 100 µM, a TGI [2] greater than 100 µM and a TGI [3] greater than 100 µM. For the same molecule, the TGI [4] was greater than 100 µM, the TGI [5] was greater than 100 µM and the TGI [6] was greater than 100 µM. For the same molecule, the TGI [7] was greater than 100 µM, the TGI [8] was greater than 100 µM and the TGI [9] was greater than 100 µM. It also gave a TGI [10] greater than 100 µM, a TGI [11] greater than 100 µM and a TGI [12] greater than 100 µM. The TGI [13] was greater than 100 µM, the TGI [14] was greater than 100 µM and the TGI [15] was greater than 100 µM. It also gave a TGI [16] greater than 100 µM, a TGI [17] greater than 100 µM and a TGI [18] greater than 100 µM. The TGI [19] was greater than 100 µM, the TGI [20] was greater than 100 µM and the TGI [21] was greater than 100 µM. The TGI [22] was greater than 100 µM, the TGI [23] was greater than 100 µM and the TGI [24] was greater than 100 µM. For the same molecule, the TGI [25] was greater than 100 µM, the TGI [26] was greater than 100 µM and the TGI [27] was greater than 100 µM. For the same molecule, the TGI [28] was greater than 100 µM, the TGI [29] was greater than 100 µM and the TGI [30] was greater than 100 µM. For the same molecule, the TGI [31] was greater than 100 µM, the TGI [32] was greater than 100 µM and the TGI [33] was greater than 100 µM. For the same molecule, the TGI [34] was greater than 100 µM, the TGI [35] was greater than 100 µM and the TGI [36] was greater than 100 µM. The TGI [37] was greater than 100 µM, the TGI [38] was greater than 100 µM and the TGI [39] was greater than 100 µM. It also gave a TGI [40] greater than 100 µM, a TGI [41] greater than 100 µM and a TGI [42] greater than 100 µM. The TGI [43] was greater than 100 µM, the TGI [44] was greater than 100 µM and the TGI [45] was greater than 100 µM. It also gave a TGI [46] greater than 100 µM, a TGI [47] greater than 100 µM and a TGI [48] greater than 100 µM. For the same molecule, the TGI [49] was greater than 100 µM.
For `N#Cc1c(-c2cccc(Cl)c2)cc(-c2ccc(Cl)cc2)nc1N`, the TGI [50] was 44 µM, the TGI [1] was 28.6 µM and the TGI [2] was 48 µM. For the same molecule, the TGI [3] was 40.5 µM, the TGI [4] was 37.6 µM and the TGI [5] was 38.2 µM. For the same molecule, the TGI [51] was 30.9 µM, the TGI [6] was 36.3 µM and the TGI [7] was 48.4 µM. The TGI [52] was 42.9 µM, the TGI [8] was 80.7 µM and the TGI [9] was 30.1 µM. The TGI [10] was 32 µM, the TGI [11] was 25.5 µM and the TGI [12] was 45 µM. It also gave a TGI [13] of 32.7 µM, a TGI [14] of 86 µM and a TGI [15] of 37.7 µM. For the same molecule, the TGI [16] was 70.7 µM, the TGI [17] was 36.1 µM and the TGI [53] was 63.9 µM. The TGI [18] was greater than 100 µM, the TGI [19] was 31.5 µM and the TGI [22] was 34.3 µM. It also gave a TGI [54] of 25.3 µM, a TGI [23] of 52.2 µM and a TGI [25] of 36.9 µM. It also gave a TGI [55] of 63.5 µM, a TGI [26] of 27.5 µM and a TGI [27] of 42.3 µM. It also gave a TGI [28] of 58.4 µM, a TGI [29] of 41.6 µM and a TGI [30] greater than 100 µM. For the same molecule, the TGI [31] was 36.4 µM, the TGI [32] was 34.1 µM and the TGI [56] was 33.1 µM. It also gave a TGI [33] of 58.6 µM, a TGI [34] of 34.2 µM and a TGI [57] of 36.7 µM. The TGI [35] was 40 µM, the TGI [36] was greater than 100 µM and the TGI [58] was 32.3 µM. The TGI [37] was 46.7 µM, the TGI [59] was 36.1 µM and the TGI [38] was 34.4 µM. It also gave a TGI [39] of 32.5 µM, a TGI [40] of 32.9 µM and a TGI [41] of 49.2 µM. The TGI [42] was 39.2 µM, the TGI [44] was 77.2 µM and the TGI [45] was 30.8 µM. The TGI [46] was 24.4 µM, the TGI [47] was 38.3 µM and the TGI [48] was 33.5 µM. The TGI [49] was 34.8 µM.
`CC1OC(OC2C(CO)OC(O[C@H]3CC[C@@]4(C)C(=CC[C@H]5[C@@H]6C[C@@H]7O[C@](O)(CC[C@H](CO)COC8OC(CO)C(O)C(O)C8O)[C@@H](C)[C@@H]7[C@@]6(C)CC[C@@H]54)C3)C(OC3OC(C)C(O)C(O)C3O)C2O)C(O)C(O)C1O` (some centres not stated) was tested, and the TGI [50] was greater than 100 µM, the TGI [1] was greater than 100 µM and the TGI [2] was greater than 100 µM. The TGI [3] was greater than 100 µM, the TGI [4] was greater than 100 µM and the TGI [5] was greater than 100 µM. It also gave a TGI [51] greater than 100 µM, a TGI [6] greater than 100 µM and a TGI [7] greater than 100 µM. It also gave a TGI [52] greater than 100 µM, a TGI [8] greater than 100 µM and a TGI [9] greater than 100 µM. The TGI [10] was greater than 100 µM, the TGI [11] was greater than 100 µM and the TGI [12] was greater than 100 µM. For the same molecule, the TGI [13] was greater than 100 µM, the TGI [14] was greater than 100 µM and the TGI [15] was greater than 100 µM. The TGI [16] was greater than 100 µM, the TGI [17] was greater than 100 µM and the TGI [53] was greater than 100 µM. The TGI [18] was greater than 100 µM, the TGI [19] was greater than 100 µM and the TGI [20] was greater than 100 µM. The TGI [21] was greater than 100 µM, the TGI [22] was greater than 100 µM and the TGI [54] was greater than 100 µM. It also gave a TGI [23] greater than 100 µM, a TGI [24] greater than 100 µM and a TGI [25] greater than 100 µM. For the same molecule, the TGI [55] was greater than 100 µM, the TGI [26] was greater than 100 µM and the TGI [27] was greater than 100 µM. For the same molecule, the TGI [28] was greater than 100 µM, the TGI [29] was greater than 100 µM and the TGI [30] was greater than 100 µM. It also gave a TGI [31] greater than 100 µM, a TGI [32] greater than 100 µM and a TGI [56] greater than 100 µM. The TGI [33] was greater than 100 µM, the TGI [34] was greater than 100 µM and the TGI [57] was greater than 100 µM. For the same molecule, the TGI [35] was greater than 100 µM, the TGI [36] was greater than 100 µM and the TGI [58] was greater than 100 µM. The TGI [37] was greater than 100 µM, the TGI [59] was greater than 100 µM and the TGI [38] was greater than 100 µM. The TGI [39] was greater than 100 µM, the TGI [40] was greater than 100 µM and the TGI [41] was greater than 100 µM. For the same molecule, the TGI [42] was greater than 100 µM, the TGI [43] was greater than 100 µM and the TGI [45] was greater than 100 µM. The TGI [46] was greater than 100 µM, the TGI [47] was greater than 100 µM and the TGI [48] was greater than 100 µM.
With `CC(=O)C1=C(C)N2C(=NC3=C(CCc4ccccc43)C2c2cccc(Br)c2)S1` (configuration not stated) the TGI [50] was greater than 100 µM, the TGI [1] was greater than 100 µM and the TGI [2] was 53.5 µM. For the same molecule, the TGI [3] was greater than 100 µM, the TGI [4] was greater than 100 µM and the TGI [5] was greater than 100 µM. The TGI [51] was greater than 100 µM, the TGI [6] was greater than 100 µM and the TGI [7] was greater than 100 µM. The TGI [52] was greater than 100 µM, the TGI [8] was greater than 100 µM and the TGI [9] was greater than 100 µM. For the same molecule, the TGI [10] was greater than 100 µM, the TGI [11] was greater than 100 µM and the TGI [12] was greater than 100 µM. For the same molecule, the TGI [13] was greater than 100 µM, the TGI [15] was greater than 100 µM and the TGI [16] was greater than 100 µM. The TGI [17] was greater than 100 µM, the TGI [53] was greater than 100 µM and the TGI [18] was greater than 100 µM. For the same molecule, the TGI [19] was greater than 100 µM, the TGI [20] was greater than 100 µM and the TGI [21] was greater than 100 µM. It also gave a TGI [22] greater than 100 µM, a TGI [54] greater than 100 µM and a TGI [24] greater than 100 µM. For the same molecule, the TGI [25] was greater than 100 µM, the TGI [55] was greater than 100 µM and the TGI [26] was greater than 100 µM. For the same molecule, the TGI [27] was greater than 100 µM, the TGI [29] was greater than 100 µM and the TGI [31] was greater than 100 µM. It also gave a TGI [32] greater than 100 µM, a TGI [56] greater than 100 µM and a TGI [34] greater than 100 µM. It also gave a TGI [57] greater than 100 µM, a TGI [36] greater than 100 µM and a TGI [58] greater than 100 µM. It also gave a TGI [37] greater than 100 µM, a TGI [59] greater than 100 µM and a TGI [38] greater than 100 µM. For the same molecule, the TGI [39] was greater than 100 µM, the TGI [40] was greater than 100 µM and the TGI [41] was greater than 100 µM. It also gave a TGI [43] greater than 100 µM, a TGI [44] greater than 100 µM and a TGI [46] greater than 100 µM. For the same molecule, the TGI [47] was greater than 100 µM, the TGI [48] was greater than 100 µM and the TGI [49] was greater than 100 µM.
